Results published in patent US12238268B2, “Imaging systems and methods” (priority 2012, dated 2025).
Positions of bridges follow the written chain, without caps; N, C: chain ends. Non-standard residues stand in square brackets, D forms with d. Residues, ends and D or L forms follow the SMILES beside them. *: point of attachment. X1 = CC1(C)C(/C=C/C=C/C=C/C=C2/N(CCC(=O)*)c3ccc4ccccc4c3C2(C)C)=[N+](CCC(=O)[O-])c2ccc3ccccc3c21

Key:
ABIR = ABIR (Homo sapiens, UniProt P05106+P06756); assay: ABIR binding affinity; details: relative to reference cypate-labeled RGD peptide
From the text: (§1) An example of a tumor-targeted molecular probe is LS-301, which has the structure, Cypate-cyclo (D-Cys-Gly-Arg-Asp-Ser-Pro-Cys)-Lys-OH. The spectral properties of LS-301 are suitable for NIR imaging applications (e.g., excitation/emission 790/810 nm in 20% DMSO solution; fluorescence quantum yield (ψ) 0.1 referenced to ICG). […] In addition to conferring tumor selectivity on LS-301, the unnatural D-cysteine on the peptide moiety confers higher stability because of its resistance to degradation by proteases. This biological stability in serum allows initial imaging and potential follow-up surgery to be conducted within 48 hours before subsequent hydrolysis of the probe through L-amino acid residues.

[1] = Biological stability in serum; assay type: in vitro ADME; details: hydrolysis through L-amino acid residues
From the text: as §1

[2] = system: hepatocellular carcinoma (HCC); assay: Goggle-aided fluorescence imaging of hepatocellular carcinoma in patients; assay type: in vivo; details: human patients
From the text: In another example, goggle device 102 (shown in FIG. 1) and indocyanine green dye were used to image hepatocellular carcinoma (HCC) in human patients. Both intravenous and transarterial hepatic (TAH) delivery of indocyanine green dye were used. […] Histologic validation was used to confirm HCC in the patients.

liver tumors = assay: Goggle-aided fluorescence imaging of liver tumors, mice; assay type: in vivo; details: goggle device 102
Method: (§2) In another example, a multimodal detection technique was implemented in which goggle-aided fluorescence imaging (e.g., using goggle device 102 (shown in FIG. 1) and indocyanine green dye) was combined with ultrasound imaging and standard histology. Specifically, fluorescence imaging was used to detect liver tumors in mice and to perform liver resections on the tumors. […] Further, liver resection was performed on a rabbit using ultrasound, fluorescence imaging, and standard histology. […] The excised tissues were later examined by histopathology, and it was confirmed that the tumors were cancerous.

tumors = assay: Goggle-aided fluorescence imaging and liver resection, rabbit; assay type: in vivo; details: fluorescence goggle system 100, confirmed by ultrasound and histopathology
Method: as §2

ABIR, sequence (P06756 31-889 limits assumed): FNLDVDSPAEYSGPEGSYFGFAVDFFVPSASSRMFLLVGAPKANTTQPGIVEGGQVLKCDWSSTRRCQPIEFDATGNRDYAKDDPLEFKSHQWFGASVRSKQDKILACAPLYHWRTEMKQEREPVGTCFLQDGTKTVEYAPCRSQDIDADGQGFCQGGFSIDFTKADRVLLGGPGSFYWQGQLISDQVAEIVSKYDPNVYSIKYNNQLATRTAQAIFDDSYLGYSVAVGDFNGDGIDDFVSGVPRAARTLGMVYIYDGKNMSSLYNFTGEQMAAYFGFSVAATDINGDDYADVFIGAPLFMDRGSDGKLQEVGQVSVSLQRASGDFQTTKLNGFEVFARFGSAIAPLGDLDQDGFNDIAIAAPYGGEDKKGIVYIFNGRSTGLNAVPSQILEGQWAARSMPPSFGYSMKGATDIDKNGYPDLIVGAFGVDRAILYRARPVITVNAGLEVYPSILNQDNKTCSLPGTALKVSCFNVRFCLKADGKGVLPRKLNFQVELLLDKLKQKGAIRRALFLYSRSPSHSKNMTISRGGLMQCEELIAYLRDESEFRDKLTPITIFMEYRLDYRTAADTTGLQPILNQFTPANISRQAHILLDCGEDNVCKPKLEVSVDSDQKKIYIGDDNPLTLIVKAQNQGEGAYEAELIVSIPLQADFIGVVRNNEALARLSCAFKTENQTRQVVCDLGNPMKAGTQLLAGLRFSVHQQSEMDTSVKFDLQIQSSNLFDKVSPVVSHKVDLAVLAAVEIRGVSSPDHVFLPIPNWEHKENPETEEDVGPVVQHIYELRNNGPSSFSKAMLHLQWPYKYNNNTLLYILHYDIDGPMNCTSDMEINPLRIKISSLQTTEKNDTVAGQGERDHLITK
ABIR, sequence (P06756 891-1048 partner limits assumed): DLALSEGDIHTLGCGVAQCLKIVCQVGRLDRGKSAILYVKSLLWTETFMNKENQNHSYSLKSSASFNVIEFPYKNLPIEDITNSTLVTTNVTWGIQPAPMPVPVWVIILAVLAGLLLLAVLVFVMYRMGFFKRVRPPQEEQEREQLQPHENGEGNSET
ABIR, sequence (P05106 27-788): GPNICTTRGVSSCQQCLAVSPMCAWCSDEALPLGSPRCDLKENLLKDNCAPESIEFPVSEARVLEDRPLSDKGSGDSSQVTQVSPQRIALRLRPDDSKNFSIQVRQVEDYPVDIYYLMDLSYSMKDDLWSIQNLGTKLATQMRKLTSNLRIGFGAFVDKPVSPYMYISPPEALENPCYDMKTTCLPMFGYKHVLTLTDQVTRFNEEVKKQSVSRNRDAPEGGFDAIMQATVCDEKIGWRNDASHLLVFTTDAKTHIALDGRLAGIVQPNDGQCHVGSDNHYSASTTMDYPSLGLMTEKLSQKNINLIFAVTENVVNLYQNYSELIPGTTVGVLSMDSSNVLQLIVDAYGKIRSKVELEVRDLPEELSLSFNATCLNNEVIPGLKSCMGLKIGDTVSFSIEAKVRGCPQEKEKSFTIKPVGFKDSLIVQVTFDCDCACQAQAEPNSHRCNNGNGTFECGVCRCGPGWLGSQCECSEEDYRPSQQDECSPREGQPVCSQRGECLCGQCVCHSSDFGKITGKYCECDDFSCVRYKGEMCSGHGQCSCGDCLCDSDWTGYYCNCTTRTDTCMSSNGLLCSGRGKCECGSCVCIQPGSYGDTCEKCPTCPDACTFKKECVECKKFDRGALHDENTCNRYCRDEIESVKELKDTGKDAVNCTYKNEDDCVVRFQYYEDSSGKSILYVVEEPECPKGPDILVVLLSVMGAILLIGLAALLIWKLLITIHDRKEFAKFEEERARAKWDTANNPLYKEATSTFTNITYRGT

SMILES	Ki (ABIR) [nM]	biological stability in serum: time for imaging and follow-up surgery before hydrolysis of the probe [1] [hours]	HCC-to-liver fluorescence contrast, TAH delivery instead of intravenous delivery ([2]; goggle device 102)	detection of HCC tumors by fluorescence imaging ([2]; intravenous and transarterial hepatic (TAH) delivery)	detection of liver tumors by fluorescence imaging (liver tumors)	observation of tumors by fluorescence imaging (tumors)
CC1(C)C(/C=C/C=C/C=C/C=C2/N(CCC(=O)N[C@@H]3CSSC[C@@H](C(=O)N[C@@H](CCCCN)C(=O)O)NC(=O)[C@@H]4CCCN4C(=O)[C@H](CO)NC(=O)[C@H](CC(=O)O)NC(=O)[C@H](CCCNC(=N)N)NC(=O)CNC3=O)c3ccc4ccccc4c3C2(C)C)=[N+](CCC(=O)[O-])c2ccc3ccccc3c21 [LS-301, Cypate-cyclo (D-Cys-Gly-Arg-Asp-Ser-Pro-Cys)-Lys-OH] (X1-[dC]GRDSPCK-OH; disulfide 1-7)	26.2 ± 0.4	≤ 48	–	–	–	–
CC1(C)C(/C=C/C=C/C=C/C=C2\N(CCCCS(=O)(=O)O)c3ccc4ccccc4c3C2(C)C)=[N+](CCCCS(=O)(=O)[O-])c2ccc3ccccc3c21 [indocyanine green dye, indocyanine green]	–	–	significantly higher	Primary tumors and satellite tumors were both detected	In addition to single tumors, scattered satellite lesions were also detected	observed in real-time
